Results taken from ChEMBL document CHEMBL3352762 (J Med Chem, 2014).
The source made the active and inactive calls. The rule behind the calls is not given here. Peptide text beside a SMILES is read from it.

What was measured:
[1] = molecular target: T1, Urotensin-2 receptor (Homo sapiens, UniProt Q9UKP6); assay: Displacement of [125I]urotensin-2 from human recombinant UT receptor expressed in CHO-K1 cells by scintillation counting method; format: cell-based
T1 sequence (Q9UKP6 whole entry): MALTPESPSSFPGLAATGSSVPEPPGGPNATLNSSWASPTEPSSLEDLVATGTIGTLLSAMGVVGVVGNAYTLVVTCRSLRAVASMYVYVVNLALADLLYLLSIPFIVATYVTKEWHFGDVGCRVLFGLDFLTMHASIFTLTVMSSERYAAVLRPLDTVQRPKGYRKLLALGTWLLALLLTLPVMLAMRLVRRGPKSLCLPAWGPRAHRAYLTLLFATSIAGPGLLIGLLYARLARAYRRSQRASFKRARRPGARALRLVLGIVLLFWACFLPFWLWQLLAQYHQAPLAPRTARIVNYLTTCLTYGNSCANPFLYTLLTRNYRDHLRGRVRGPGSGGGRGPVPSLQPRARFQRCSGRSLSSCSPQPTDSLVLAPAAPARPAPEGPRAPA

[2] = molecular target: T2, Urotensin-2 receptor (Rattus norvegicus) (UniProt P49684); assay: Agonist activity at UT receptor in rat aorta assessed as contraction relative to urotensin-2; format: tissue-based
T2 sequence (whole entry): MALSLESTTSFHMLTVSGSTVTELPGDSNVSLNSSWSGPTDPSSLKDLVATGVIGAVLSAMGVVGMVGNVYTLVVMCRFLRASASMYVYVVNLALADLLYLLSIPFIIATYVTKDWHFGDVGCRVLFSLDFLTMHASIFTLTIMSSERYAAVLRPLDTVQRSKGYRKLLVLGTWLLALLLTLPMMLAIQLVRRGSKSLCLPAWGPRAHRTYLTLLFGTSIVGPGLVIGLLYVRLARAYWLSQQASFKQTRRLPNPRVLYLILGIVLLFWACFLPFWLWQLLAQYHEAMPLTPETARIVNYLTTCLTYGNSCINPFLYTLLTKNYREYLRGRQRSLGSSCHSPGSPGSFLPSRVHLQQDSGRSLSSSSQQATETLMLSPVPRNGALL

[3] = Stability in 25% fetal calf serum assessed as parent compound remaining at 80 uM at 37 degC after 16 hrs by RP-HPLC-UV based detection assay; format: ADME, Bos taurus; conditions: cattle, read-out: Stability
[4] = Stability in 25% fetal calf serum assessed as parent compound remaining at 80 uM at 37 degC after 36 hrs by RP-HPLC-UV based detection assay; format: ADME, Bos taurus; conditions: cattle, read-out: Stability
[5] = molecular target: T3, Urotensin-2 receptor (Rattus norvegicus, UniProt P49684); assay: (§1) Agonist activity at UT receptor in rat aorta assessed as contraction; format: tissue-based
T3 sequence (P49684 whole entry): T2 sequence (whole entry)

[6] = molecular target: T4, Urotensin-2 receptor (Homo sapiens) (UniProt Q9UKP6); assay: Partial agonist activity at human recombinant UT receptor expressed in CHO-K1 cells assessed as stimulation of intracellular calcium mobilization by FLIPR assay; format: functional, cell-based
T4 sequence (whole entry): T1 sequence (Q9UKP6 whole entry)

[7] = molecular target: T2, Urotensin-2 receptor (Rattus norvegicus); assay: Competitive antagonist activity at UT receptor in rat aorta assessed as effect on urotensin-2-induced contraction; format: tissue-based
[8] = molecular target: T4, Urotensin-2 receptor (Homo sapiens); assay: Partial agonist activity at human recombinant UT receptor expressed in CHO-K1 cells assessed as stimulation of intracellular calcium mobilization at 10 uM by FLIPR assay relative to urotensin-2; format: functional, cell-based
[9] = molecular target: T2, Urotensin-2 receptor (Rattus norvegicus); assay: as §1; format: tissue-based
[10] = molecular target: T4, Urotensin-2 receptor (Homo sapiens); assay: Partial agonist activity at human recombinant UT receptor expressed in CHO-K1 cells assessed as stimulation of intracellular calcium mobilization at 1 uM by FLIPR assay relative to urotensin-2; format: functional, cell-based

Compound | Ki [1] | Emax [2] | remaining at 16 h, 80 µM [3] | remaining at 36 h, 80 µM [4] | EC50 [5] | Activity [6] | pKb [7] | Efficacy [8] | pEC50 [9] | Efficacy [10]
CC(C)[C@H](NC(=O)[C@@H]1CSSC(C)(C)[C@H](NC(=O)[C@@H](N)CC(=O)O)C(=O)N[C@@H](Cc2ccccc2)C(=O)N[C@@H](Cc2c[nH]c3ccccc23)C(=O)N[C@@H](CCCCN)C(=O)N[C@@H](Cc2ccc(Cl)c(Cl)c2)C(=O)N1)C(=O)O (HELM PEPTIDE1{D.[Pen].F.W.K.[O=C([C@H](Cc1ccc(Cl)c(Cl)c1)N[*:1])[*:2]].C.V}$PEPTIDE1,PEPTIDE1,2:R3-7:R3$$$V2.0) | 0.776 nM | 102% | > 70% | > 50% | 0.0126 nM | – | – | – | – | –
CC(C)[C@H](NC(=O)[C@@H]1CSSC[C@H](NC(=O)[C@H](CC(=O)O)NC(=O)[C@@H]2CCCN2C(=O)[C@@H](NC(=O)[C@@H](N)CCC(=O)O)[C@@H](C)O)C(=O)N[C@@H](Cc2ccccc2)C(=O)N[C@@H](Cc2c[nH]c3ccccc23)C(=O)N[C@@H](CCCCN)C(=O)N[C@@H](Cc2ccc(O)cc2)C(=O)N1)C(=O)O [UROTENSIN-II] | – | 100% | – | – | 3.16 nM | – | – | – | – | –
CC(C)[C@H](NC(=O)[C@@H]1CSSC(C)(C)[C@@H](NC(=O)[C@@H](N)CC(=O)O)C(=O)N[C@@H](Cc2ccccc2)C(=O)N[C@H](Cc2c[nH]c3ccccc23)C(=O)N[C@@H](CCCN)C(=O)N[C@@H](Cc2ccc(O)cc2)C(=O)N1)C(=O)O (HELM PEPTIDE1{D.[CC(C)(S[*:3])[C@@H](N[*:1])C(=O)[*:2]].F.[dW].[Orn].Y.C.V}$PEPTIDE1,PEPTIDE1,2:R3-7:R3$$$V2.0) | – | 0% | – | – | – | Active | 8.32 | 46.2% | inactive | 43.3%
CC(C)[C@H](NC(=O)[C@@H]1CSSC(C)(C)[C@H](NC(=O)[C@@H](N)CC(=O)O)C(=O)N[C@@H](Cc2ccccc2)C(=O)N[C@@H](Cc2c[nH]c3ccccc23)C(=O)N[C@@H](CCCCN)C(=O)N[C@@H](Cc2nc3ccccc3s2)C(=O)N1)C(=O)O (HELM PEPTIDE1{D.[Pen].F.W.K.[O=C([C@H](Cc1nc2ccccc2s1)N[*:1])[*:2]].C.V}$PEPTIDE1,PEPTIDE1,2:R3-7:R3$$$V2.0) | 1.74 nM | 89% | – | – | 0.0195 nM | – | – | – | – | –
CC(C)[C@H](NC(=O)[C@@H]1CSSC(C)(C)[C@H](NC(=O)[C@@H](N)CC(=O)O)C(=O)N[C@@H](Cc2ccccc2)C(=O)N[C@@H](Cc2c[nH]c3ccccc23)C(=O)N[C@@H](CCCCN)C(=O)N[C@@H](Cc2ccc([N+](=O)[O-])cc2)C(=O)N1)C(=O)O (HELM PEPTIDE1{D.[Pen].F.W.K.[O=C([C@H](Cc1ccc([N+](=O)[O-])cc1)N[*:1])[*:2]].C.V}$PEPTIDE1,PEPTIDE1,2:R3-7:R3$$$V2.0) | 1.78 nM | 95% | – | – | 0.631 nM | – | – | – | – | –
CC(C)[C@H](NC(=O)[C@@H]1CSSC(C)(C)[C@H](NC(=O)[C@@H](N)CC(=O)O)C(=O)N[C@@H](Cc2ccccc2)C(=O)N[C@@H](Cc2c[nH]c3ccccc23)C(=O)N[C@@H](CCCCN)C(=O)N[C@@H](Cc2ccc(C#N)cc2)C(=O)N1)C(=O)O (HELM PEPTIDE1{D.[Pen].F.W.K.[N#Cc1ccc(C[C@H](N[*:1])C(=O)[*:2])cc1].C.V}$PEPTIDE1,PEPTIDE1,2:R3-7:R3$$$V2.0) | 1.82 nM | 79% | – | – | 1.07 nM | – | – | – | – | –
CC(C)[C@H](NC(=O)[C@@H]1CSSC(C)(C)[C@H](NC(=O)[C@@H](N)CC(=O)O)C(=O)N[C@@H](Cc2ccccc2)C(=O)N[C@H](Cc2c[nH]c3ccccc23)C(=O)N[C@@H](CCCN)C(=O)N[C@@H](Cc2ccc(O)cc2)C(=O)N1)C(=O)O [URANTIDE] (HELM PEPTIDE1{D.[Pen].F.[dW].[Orn].Y.C.V}$PEPTIDE1,PEPTIDE1,2:R3-7:R3$$$V2.0) | – | – | – | > 50% | – | – | – | – | – | –
CC(C)[C@H](NC(=O)[C@@H]1CSSC(C)(C)[C@H](NC(=O)[C@@H](N)CC(=O)O)C(=O)N[C@@H](Cc2ccccc2)C(=O)N[C@@H](Cc2c[nH]c3ccccc23)C(=O)N[C@@H](CCCCN)C(=O)N[C@@H](Cc2ccc(Cl)cc2)C(=O)N1)C(=O)O (HELM PEPTIDE1{D.[Pen].F.W.K.[O=C([C@H](Cc1ccc(Cl)cc1)N[*:1])[*:2]].C.V}$PEPTIDE1,PEPTIDE1,2:R3-7:R3$$$V2.0) | 1.23 nM | 85% | – | – | 0.813 nM | – | – | – | – | –
CC(C)[C@H](NC(=O)[C@@H]1CSSC(C)(C)[C@H](NC(=O)[C@@H](N)CC(=O)O)C(=O)N[C@@H](Cc2ccccc2)C(=O)N[C@@H](Cc2c[nH]c3ccccc23)C(=O)N[C@@H](CCCCN)C(=O)N[C@@H](Cc2ccc(O)cc2)C(=O)N1)C(=O)O (HELM PEPTIDE1{D.[Pen].F.W.K.Y.C.V}$PEPTIDE1,PEPTIDE1,2:R3-7:R3$$$V2.0) | 0.2 nM | 95% | 65% | 45% | 0.398 nM | – | – | – | – | –

The next lines start with the values.

Ki [1] | Emax [2] | remaining at 16 h, 80 µM [3] | remaining at 36 h, 80 µM [4] | EC50 [5] | Activity [6] | pKb [7] | Efficacy [8] | pEC50 [9] | Efficacy [10] | Compound
6.46 nM | 37% | – | – | 18.2 nM | – | – | – | – | – | CC(C)[C@H](NC(=O)[C@@H]1CSSC(C)(C)[C@H](NC(=O)[C@@H](N)CC(=O)O)C(=O)N[C@@H](Cc2ccccc2)C(=O)N[C@H](Cc2c[nH]c3ccccc23)C(=O)N[C@@H](CCCN)C(=O)N[C@@H](Cc2cccc3ccccc23)C(=O)N1)C(=O)O
1.05 nM | 13% | – | – | 2.69 nM | – | – | – | – | – | CC(C)[C@H](NC(=O)[C@@H]1CSSC(C)(C)[C@H](NC(=O)[C@@H](N)CC(=O)O)C(=O)N[C@@H](Cc2ccccc2)C(=O)N[C@H](Cc2c[nH]c3ccccc23)C(=O)N[C@@H](CCCN)C(=O)N[C@@H](Cc2ccc(Cl)cc2)C(=O)N1)C(=O)O
2.24 nM | 26% | – | – | 12.9 nM | – | – | – | – | – | CC(C)[C@H](NC(=O)[C@@H]1CSSC(C)(C)[C@H](NC(=O)[C@@H](N)CC(=O)O)C(=O)N[C@@H](Cc2ccccc2)C(=O)N[C@H](Cc2c[nH]c3ccccc23)C(=O)N[C@@H](CCCN)C(=O)N[C@@H](Cc2ccc(Cl)c(Cl)c2)C(=O)N1)C(=O)O
0.398 nM | 86% | – | – | 5.01 nM | – | – | – | – | – | CC(C)[C@H](NC(=O)[C@@H]1CSSC(C)(C)[C@H](NC(=O)[C@@H](N)CC(=O)O)C(=O)N[C@@H](Cc2ccccc2)C(=O)N[C@@H](Cc2c[nH]c3ccccc23)C(=O)N[C@@H](CCCCN)C(=O)N[C@@H](Cc2cccc3ccccc23)C(=O)N1)C(=O)O (HELM PEPTIDE1{D.[Pen].F.W.K.[O=C([C@H](Cc1cccc2ccccc12)N[*:1])[*:2]].C.V}$PEPTIDE1,PEPTIDE1,2:R3-7:R3$$$V2.0)
17 nM | 0% | – | – | – | Active | 8.12 | 61.2% | inactive | 56.5% | CC(C)[C@H](NC(=O)[C@@H]1CSSC(C)(C)[C@H](NC(=O)[C@@H](N)CC(=O)O)C(=O)N[C@@H](Cc2ccccc2)C(=O)N[C@H](Cc2c[nH]c3ccccc23)C(=O)N[C@@H](CCCN)C(=O)N[C@@H](Cc2ccc([N+](=O)[O-])cc2)C(=O)N1)C(=O)O
2 nM | 85% | – | – | 0.724 nM | – | – | – | – | – | CC(C)[C@H](NC(=O)[C@@H]1CSSC(C)(C)[C@H](NC(=O)[C@@H](N)CC(=O)O)C(=O)N[C@@H](Cc2ccccc2)C(=O)N[C@@H](Cc2c[nH]c3ccccc23)C(=O)N[C@@H](CCCCN)C(=O)N[C@@H](Cc2ccc3ccccc3c2)C(=O)N1)C(=O)O (HELM PEPTIDE1{D.[Pen].F.W.K.[O=C([C@H](Cc1ccc2ccccc2c1)N[*:1])[*:2]].C.V}$PEPTIDE1,PEPTIDE1,2:R3-7:R3$$$V2.0)
12.9 nM | 57% | – | – | 33.9 nM | – | – | – | – | – | CC(C)[C@H](NC(=O)[C@@H]1CSSC(C)(C)[C@H](NC(=O)[C@@H](N)CC(=O)O)C(=O)N[C@@H](Cc2ccccc2)C(=O)N[C@H](Cc2c[nH]c3ccccc23)C(=O)N[C@@H](CCCN)C(=O)N[C@@H](Cc2nc3ccccc3s2)C(=O)N1)C(=O)O
0.251 nM | 100% | < 50% | – | 3.63 nM | – | – | – | – | – | CC(C)[C@H](NC(=O)[C@@H]1CSSC[C@H](NC(=O)[C@@H](N)CC(=O)O)C(=O)N[C@@H](Cc2ccccc2)C(=O)N[C@@H](Cc2c[nH]c3ccccc23)C(=O)N[C@@H](CCCCN)C(=O)N[C@@H](Cc2ccc(O)cc2)C(=O)N1)C(=O)O (HELM PEPTIDE1{D.C.F.W.K.Y.C.V}$PEPTIDE1,PEPTIDE1,2:R3-7:R3$$$V2.0)
0.724 nM | 13% | – | – | 3.8 nM | – | – | – | – | – | CC(C)[C@H](NC(=O)[C@@H]1CSSC(C)(C)[C@H](NC(=O)[C@@H](N)CC(=O)O)C(=O)N[C@@H](Cc2ccccc2)C(=O)N[C@H](Cc2c[nH]c3ccccc23)C(=O)N[C@@H](CCCN)C(=O)N[C@@H](Cc2ccc3ccccc3c2)C(=O)N1)C(=O)O
